Laboratory results as given in the NIST ThermoML archive (doi:10.1021/je0255980).
Values joined by “and” are separate entries in the source; they are usually repeats but may differ in a detail not shown here. Identical values can stand only once. Numbers after ± are expanded uncertainties.

Conditions: Liquid

CCOC(C)(C)CC [1,1-dimethylpropyl ethyl ether]
vapor or sublimation pressure (274.2 K): 1.413 ± 0.11 kPa | vapor or sublimation pressure (276.2 K): 1.614 ± 0.13 kPa | vapor or sublimation pressure (278.2 K): 1.821 ± 0.14 kPa | vapor or sublimation pressure (280.2 K): 2.055 ± 0.16 kPa | vapor or sublimation pressure (282.2 K): 2.341 ± 0.18 kPa | vapor or sublimation pressure (284.2 K): 2.67 ± 0.21 kPa | vapor or sublimation pressure (287.2 K): 3.214 ± 0.25 kPa | vapor or sublimation pressure (290.2 K): 3.744 ± 0.29 kPa | vapor or sublimation pressure (293.2 K): 4.439 ± 0.34 kPa | vapor or sublimation pressure (296.2 K): 5.272 ± 0.41 kPa | vapor or sublimation pressure (299.2 K): 6.128 ± 0.48 kPa | vapor or sublimation pressure (302.2 K): 7.186 ± 0.56 kPa

CCCOC(C)(C)CC [1,1-dimethylpropyl propyl ether]
vapor or sublimation pressure (274.2 K): 0.4002 ± 0.031 kPa | vapor or sublimation pressure (276.2 K): 0.4448 ± 0.035 kPa | vapor or sublimation pressure (278.1 K): 0.5329 ± 0.042 kPa | vapor or sublimation pressure (280.2 K): 0.6121 ± 0.048 kPa | vapor or sublimation pressure (282.2 K): 0.7161 ± 0.056 kPa | vapor or sublimation pressure (284.2 K): 0.7938 ± 0.062 kPa | vapor or sublimation pressure (285.1 K): 0.8034 ± 0.063 kPa | vapor or sublimation pressure (287.3 K): 0.9974 ± 0.078 kPa | vapor or sublimation pressure (290.3 K): 1.199 ± 0.093 kPa | vapor or sublimation pressure (293.3 K): 1.434 ± 0.11 kPa | vapor or sublimation pressure (296.2 K): 1.799 ± 0.14 kPa | vapor or sublimation pressure (299.2 K): 2.072 ± 0.16 kPa | vapor or sublimation pressure (302.2 K): 2.332 ± 0.18 kPa

CCC(C)(C)OC [2-methoxy-2-methylbutane]
vapor or sublimation pressure (274.2 K): 2.693 ± 0.21 kPa | vapor or sublimation pressure (276.2 K): 2.998 ± 0.23 kPa | vapor or sublimation pressure (278.2 K): 3.315 ± 0.26 kPa | vapor or sublimation pressure (280.2 K): 3.8 ± 0.3 kPa | vapor or sublimation pressure (282.8 K): 4.422 ± 0.34 kPa | vapor or sublimation pressure (283.8 K): 4.678 ± 0.36 kPa | vapor or sublimation pressure (287.8 K): 5.69 ± 0.44 kPa | vapor or sublimation pressure (292.9 K): 7.603 ± 0.59 kPa | vapor or sublimation pressure (297.8 K): 9.142 ± 0.71 kPa | vapor or sublimation pressure (302.8 K): 12.31 ± 0.96 kPa | vapor or sublimation pressure (307.8 K): 14.55 ± 1.1 kPa

CCCCOC(C)(C)CC(C)(C)C [butyl 1,1,3,3-tetramethylbutyl ether]
vapor or sublimation pressure (278.3 K): 0.0128 ± 0.001 kPa | vapor or sublimation pressure (281.3 K): 0.0165 ± 0.0013 kPa | vapor or sublimation pressure (284.3 K): 0.0206 ± 0.0016 kPa | vapor or sublimation pressure (287.3 K): 0.0269 ± 0.0021 kPa | vapor or sublimation pressure (290.3 K): 0.0324 ± 0.0025 kPa | vapor or sublimation pressure (293.3 K): 0.0413 ± 0.0032 kPa | vapor or sublimation pressure (296.3 K): 0.053 ± 0.0041 kPa | vapor or sublimation pressure (299.2 K): 0.0654 ± 0.0051 kPa | vapor or sublimation pressure (302.2 K): 0.0797 ± 0.0062 kPa | vapor or sublimation pressure (305.2 K): 0.1003 ± 0.0078 kPa | vapor or sublimation pressure (308.2 K): 0.1155 ± 0.009 kPa | vapor or sublimation pressure (311.2 K): 0.1474 ± 0.011 kPa | vapor or sublimation pressure (314.2 K): 0.1741 ± 0.013 kPa

CCCCOC(C)(C)CC [butyl 1,1-dimethylpropyl ether]
vapor or sublimation pressure (274.2 K): 0.1111 ± 0.0086 kPa | vapor or sublimation pressure (276.2 K): 0.1278 ± 0.01 kPa | vapor or sublimation pressure (278.2 K): 0.1602 ± 0.013 kPa and 0.1508 ± 0.012 kPa | vapor or sublimation pressure (281.3 K): 0.1842 ± 0.014 kPa | vapor or sublimation pressure (283.2 K): 0.2344 ± 0.018 kPa and 0.2179 ± 0.017 kPa | vapor or sublimation pressure (285.2 K): 0.2509 ± 0.019 kPa | vapor or sublimation pressure (286.2 K): 0.2632 ± 0.021 kPa | vapor or sublimation pressure (288.2 K): 0.3232 ± 0.025 kPa | vapor or sublimation pressure (290.2 K): 0.3551 ± 0.028 kPa | vapor or sublimation pressure (293.2 K): 0.4784 ± 0.037 kPa and 0.4372 ± 0.034 kPa | vapor or sublimation pressure (296.2 K): 0.5522 ± 0.043 kPa | vapor or sublimation pressure (298.2 K): 0.6658 ± 0.052 kPa and 0.6132 ± 0.048 kPa | vapor or sublimation pressure (301.2 K): 0.7443 ± 0.058 kPa | vapor or sublimation pressure (303.2 K): 0.901 ± 0.07 kPa | vapor or sublimation pressure (304.2 K): 0.9012 ± 0.07 kPa | vapor or sublimation pressure (308.2 K): 1.199 ± 0.093 kPa

CCOC(C)(C)CC(C)(C)C [ethyl 1,1,3,3-tetramethylbutyl ether]
vapor or sublimation pressure (274.3 K): 0.0913 ± 0.0071 kPa | vapor or sublimation pressure (277.2 K): 0.1201 ± 0.0093 kPa | vapor or sublimation pressure (280.1 K): 0.1414 ± 0.011 kPa | vapor or sublimation pressure (283.2 K): 0.1829 ± 0.014 kPa | vapor or sublimation pressure (286.1 K): 0.2218 ± 0.017 kPa | vapor or sublimation pressure (289.2 K): 0.2772 ± 0.022 kPa | vapor or sublimation pressure (292.2 K): 0.339 ± 0.026 kPa | vapor or sublimation pressure (295.2 K): 0.4146 ± 0.032 kPa | vapor or sublimation pressure (298.2 K): 0.5117 ± 0.04 kPa | vapor or sublimation pressure (301.2 K): 0.6018 ± 0.047 kPa

CC(C)COC(C)(C)C [isobutyl tert-butyl ether]
vapor or sublimation pressure (273.3 K): 0.6788 ± 0.053 kPa | vapor or sublimation pressure (275.4 K): 0.7463 ± 0.058 kPa | vapor or sublimation pressure (276.4 K): 0.7981 ± 0.062 kPa | vapor or sublimation pressure (278.5 K): 0.9 ± 0.07 kPa | vapor or sublimation pressure (278.6 K): 0.938 ± 0.073 kPa | vapor or sublimation pressure (280.4 K): 0.9803 ± 0.076 kPa | vapor or sublimation pressure (282.5 K): 1.207 ± 0.094 kPa | vapor or sublimation pressure (283.5 K): 1.362 ± 0.11 kPa | vapor or sublimation pressure (284.6 K): 1.398 ± 0.11 kPa | vapor or sublimation pressure (287.6 K): 1.664 ± 0.13 kPa | vapor or sublimation pressure (288.4 K): 1.769 ± 0.14 kPa | vapor or sublimation pressure (290.6 K): 1.996 ± 0.15 kPa | vapor or sublimation pressure (293.4 K): 2.354 ± 0.18 kPa | vapor or sublimation pressure (293.6 K): 2.439 ± 0.19 kPa | vapor or sublimation pressure (295.6 K): 2.686 ± 0.21 kPa | vapor or sublimation pressure (298.4 K): 3.187 ± 0.25 kPa | vapor or sublimation pressure (298.7 K): 3.146 ± 0.24 kPa | vapor or sublimation pressure (301.8 K): 3.723 ± 0.29 kPa | vapor or sublimation pressure (303.4 K): 4.026 ± 0.31 kPa | vapor or sublimation pressure (304.8 K): 4.451 ± 0.35 kPa | vapor or sublimation pressure (308.4 K): 5.224 ± 0.41 kPa

COC(C)(C)CC(C)(C)C [methyl 1,1,3,3-tetramethylbutyl ether]
vapor or sublimation pressure (276.2 K): 0.1656 ± 0.013 kPa | vapor or sublimation pressure (277.3 K): 0.1859 ± 0.015 kPa | vapor or sublimation pressure (278.3 K): 0.1958 ± 0.015 kPa | vapor or sublimation pressure (280.3 K): 0.2383 ± 0.018 kPa | vapor or sublimation pressure (283.2 K): 0.2818 ± 0.022 kPa | vapor or sublimation pressure (283.3 K): 0.2759 ± 0.021 kPa | vapor or sublimation pressure (286.3 K): 0.356 ± 0.028 kPa | vapor or sublimation pressure (288.1 K): 0.3919 ± 0.03 kPa | vapor or sublimation pressure (289.3 K): 0.4126 ± 0.032 kPa | vapor or sublimation pressure (292.3 K): 0.5102 ± 0.04 kPa | vapor or sublimation pressure (293.3 K): 0.5636 ± 0.044 kPa | vapor or sublimation pressure (295.2 K): 0.6069 ± 0.047 kPa | vapor or sublimation pressure (298 K): 0.7478 ± 0.058 kPa | vapor or sublimation pressure (298.2 K): 0.7352 ± 0.057 kPa | vapor or sublimation pressure (301.2 K): 0.8887 ± 0.069 kPa | vapor or sublimation pressure (303.2 K): 1.022 ± 0.079 kPa | vapor or sublimation pressure (304.2 K): 1.07 ± 0.083 kPa | vapor or sublimation pressure (308 K): 1.339 ± 0.1 kPa

CCCCCCOC(C)(C)CC(C)(C)C [pentane, 2-hexoxy-2,4,4-trimethyl-]
vapor or sublimation pressure (295.8 K): 0.0053 ± 0.0004 kPa | vapor or sublimation pressure (298.8 K): 0.0069 ± 0.0005 kPa | vapor or sublimation pressure (301.9 K): 0.0086 ± 0.0007 kPa | vapor or sublimation pressure (304.9 K): 0.0111 ± 0.0009 kPa | vapor or sublimation pressure (308 K): 0.0141 ± 0.0011 kPa | vapor or sublimation pressure (311 K): 0.0162 ± 0.0013 kPa | vapor or sublimation pressure (314.1 K): 0.0215 ± 0.0017 kPa | vapor or sublimation pressure (317.1 K): 0.0255 ± 0.002 kPa | vapor or sublimation pressure (320.1 K): 0.0321 ± 0.0025 kPa | vapor or sublimation pressure (323.1 K): 0.0406 ± 0.0032 kPa | vapor or sublimation pressure (326.2 K): 0.0502 ± 0.0039 kPa

CCCCCOC(C)(C)CC(C)(C)C [pentane, 2-pentoxy-2,4,4-trimethyl-]
vapor or sublimation pressure (277.5 K): 0.0037 ± 0.0003 kPa | vapor or sublimation pressure (279.5 K): 0.0044 ± 0.0003 kPa | vapor or sublimation pressure (281.5 K): 0.0052 ± 0.0004 kPa | vapor or sublimation pressure (283.5 K): 0.0062 ± 0.0005 kPa | vapor or sublimation pressure (285.6 K): 0.0073 ± 0.0006 kPa | vapor or sublimation pressure (288.6 K): 0.0095 ± 0.0007 kPa | vapor or sublimation pressure (291.6 K): 0.0124 ± 0.001 kPa | vapor or sublimation pressure (294.7 K): 0.0155 ± 0.0012 kPa | vapor or sublimation pressure (297.7 K): 0.0194 ± 0.0015 kPa | vapor or sublimation pressure (300.7 K): 0.0247 ± 0.0019 kPa | vapor or sublimation pressure (303.2 K): 0.03 ± 0.0023 kPa

CCCOC(C)(C)CC(C)(C)C [pentane, 2-propoxy-2,4,4-trimethyl-]
vapor or sublimation pressure (274.3 K): 0.0336 ± 0.0026 kPa | vapor or sublimation pressure (277.3 K): 0.0443 ± 0.0035 kPa | vapor or sublimation pressure (278.2 K): 0.0491 ± 0.0038 kPa | vapor or sublimation pressure (280.2 K): 0.058 ± 0.0045 kPa | vapor or sublimation pressure (283.4 K): 0.07 ± 0.0055 kPa | vapor or sublimation pressure (286.2 K): 0.0913 ± 0.0071 kPa | vapor or sublimation pressure (289.3 K): 0.1179 ± 0.0092 kPa | vapor or sublimation pressure (292.3 K): 0.1404 ± 0.011 kPa | vapor or sublimation pressure (294.4 K): 0.1616 ± 0.013 kPa | vapor or sublimation pressure (296.3 K): 0.1858 ± 0.015 kPa | vapor or sublimation pressure (297.4 K): 0.2008 ± 0.016 kPa | vapor or sublimation pressure (297.8 K): 0.2103 ± 0.016 kPa | vapor or sublimation pressure (298.3 K): 0.2196 ± 0.017 kPa | vapor or sublimation pressure (299.3 K): 0.2293 ± 0.018 kPa | vapor or sublimation pressure (300.3 K): 0.2411 ± 0.019 kPa | vapor or sublimation pressure (301.2 K): 0.2557 ± 0.02 kPa | vapor or sublimation pressure (302.2 K): 0.2825 ± 0.022 kPa | vapor or sublimation pressure (303.2 K): 0.2956 ± 0.023 kPa | vapor or sublimation pressure (304.3 K): 0.3231 ± 0.025 kPa | vapor or sublimation pressure (305.2 K): 0.3294 ± 0.026 kPa | vapor or sublimation pressure (306.2 K): 0.3595 ± 0.028 kPa | vapor or sublimation pressure (307.2 K): 0.382 ± 0.03 kPa | vapor or sublimation pressure (308.2 K): 0.3898 ± 0.03 kPa
